The target in series [1] is T1, cloned human CRF-R1 receptors (Homo sapiens, UniProt P34998).
T1 construct: the coding region was amplifies by PCR from start to stop codons; expressed in transfected cells; membranes
T1 sequence (P34998 24-415): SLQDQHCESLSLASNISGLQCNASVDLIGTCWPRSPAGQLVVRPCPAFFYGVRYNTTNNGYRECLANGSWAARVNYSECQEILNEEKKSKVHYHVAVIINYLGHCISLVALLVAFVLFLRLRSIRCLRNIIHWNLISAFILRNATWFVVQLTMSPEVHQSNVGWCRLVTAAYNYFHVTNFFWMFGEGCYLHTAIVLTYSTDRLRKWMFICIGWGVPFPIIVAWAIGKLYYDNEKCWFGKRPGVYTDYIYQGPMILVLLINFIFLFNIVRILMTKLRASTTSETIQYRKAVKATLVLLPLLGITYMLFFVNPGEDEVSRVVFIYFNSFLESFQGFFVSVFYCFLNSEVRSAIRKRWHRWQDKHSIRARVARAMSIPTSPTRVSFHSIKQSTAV
Description: CRF-R1 receptor binding assay (inhibition of 125I-ovine-CRF binding to cell membranes). To be noted: membranes of 293EBNA cells transfected with hCRFR1, class d = reported as percent inhibition at 10 μM, figures not given, read-out: activity (Ki class in the CRF assays). An outline of the steps: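 Membranes from hygromycin-selected 293EBNA cells expressing human CRF-R1 were incubated for 2 h at room temperature with 150 pM 125I-ovine-CRF and test drug at 10^−10–10^−5 M final, in pH 7.0 HEPES buffer with MgCl2 and EGTA. Bound ligand was collected by filtration and gamma-counted, and Ki values were derived by iterative curve fitting.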

Each structure is given as a SMILES string. Some results are limits rather than exact numbers.

The molecule `CC(=O)OCc1ccc(S(=O)(=O)c2ccc(C)nc2Nc2c(C)cc(C)cc2C)cc1` [Example 55, Acetic acid 4-[6-methyl-2-(2,4,6-trimethylphenylamino)-pyridine-3-sulfonyl]-benzyl ester] had a melting point of 132 to 134 °C. Further, in series [1], the Ki was in the range of 100 to 500 nM.

Molecule `COc1cc(COc2cccc(S(=O)(=O)c3ccc(C)nc3Nc3c(C)cc(C)cc3C)c2)cc(OC)c1` [Example 63, {3-[3-(3,5-Dimethoxybenzyloxy)-benzenesulfonyl]-6-methylpyridin-2-yl}-(2,4,6-trimethylphenyl)-amine] gave a melting point of 120 to 121 °C. Also, the Ki in series [1] was 100 to 500 nM.

Consider `Cc1cc(C)c(Nc2nc(C)ccc2S(=O)(=O)c2ccc(OCc3ccc(C#N)cc3)cc2)c(C)c1` [Example 23, 4-{4-[6-Methyl-2-(2,4,6-trimethylphenylamino)-pyridine-3-sulfonyl]-phenoxymethyl}-benzonitrile], for which the melting point is 208 to 210 °C. Further, the Ki in series [1] was in the range of 100 to 500 nM.

For the molecule `CCOC(=O)COc1ccc(S(=O)(=O)c2ccc(C)nc2Nc2c(C)cc(C)cc2C)cc1` [Example 17, {4-[6-Methyl-2-(2,4,6-trimethylphenylamino)-pyridine-3-sulfonyl]-phenoxy}-acetic acid ethyl ester], the melting point was 116 to 118 °C. In addition, in series [1], the Ki was 500 to 5000 nM.

Regarding `Cc1cc(C)c(Nc2nc(C)ccc2S(=O)(=O)c2ccc(OCc3cccc(C#N)c3)cc2)c(C)c1` [Example 24, 3-{4-[6-Methyl-2-(2,4,6-trimethylphenylamino)-pyridine-3-sulfonyl]-phenoxymethyl}-benzonitrile], the melting point was 155 to 158 °C. Further, the inhibition constant Ki in series [1] is not above 100 nM.

As for `Cc1cc(C)c(Nc2nc(C)ccc2S(=O)(=O)c2ccc(OCc3c(F)cccc3[N+](=O)[O-])cc2)c(C)c1` [Example 34, {3-[4-(2-Fluoro-6-nitrobenzyloxy)-benzenesulfonyl]-6-methyl-pyridin-2-yl}-(2,4,6-trimethylphenyl)-amine], the melting point was 132 to 134 °C. In series [1], the Ki was not above 100 nM.

The record behind these values is patent US7030145B2, “Pyridinyl derivatives for the treatment of depression” (Bristol-Myers Squibb Company, priority 2003, dated 2006).
